From patent publication US3931140A, “(H-gly-gly-tyr-ala)^1 -somatostatin” (American Home Products Corporation, priority 1975, dated 1976)

Test system: growth hormone present in the plasma
Assay: In vivo growth hormone in plasma of Nembutal-treated rats by radioimmunoassay
Conditions: for growth hormone per milliliter of plasma (average): 500 micrograms per kilogram, blood sampled 15 minutes after administration, p<0.01
Protocol: The in vivo activity of the heptadecapeptide of this invention was established by injecting Nembutal intraperitoneally into rats weighing between 200 to 250 grams in an amount of 50 milligrams per kilogram body weight. After five minutes, the heptadecapeptide of this invention was administered to the rats in a dose of 500 micrograms per kilogram body weight from a solution made from three milligrams of the heptadecapeptide,1.2 milliliters of water and 4.8 milliliters of polyethylene glycol (PEG 400). The rats blood was sampled 15 minutes after administration of the heptadecapeptide and the amount of growth hormone present in the plasma was determined by radioimmunoassay.

## C[C@H](NC(=O)[C@H](Cc1ccc(O)cc1)NC(=O)CNC(=O)CN)C(=O)NCC(=O)N[C@H]1CSSC[C@@H](C(=O)O)NC(=O)[C@H](CO)NC(=O)[C@H]([C@@H](C)O)NC(=O)[C@H](Cc2ccccc2)NC(=O)[C@H]([C@@H](C)O)NC(=O)[C@H](CCCCN)NC(=O)[C@H](Cc2c[nH]c3ccccc23)NC(=O)[C@H](Cc2ccccc2)NC(=O)[C@H](Cc2ccccc2)NC(=O)[C@H](CC(N)=O)NC(=O)[C@H](CCCCN)NC1=O [heptadecapeptide, Glycyl-glycyl-L-tyrosyl-L-alanyl-glycyl-L-cysteinyl-L-lysyl-L-asparaginyl-L-phenylalanyl-L-phenylalanyl-L-tryptophyl-L-lysyl-L-threonyl-L-phenylalanyl-L-threonyl-L-seryl-L-cysteine[6-17 cyclic disulfide]]
Another experiment, twelve rats for control and testing, control 66 ± 10
  growth hormone per milliliter of plasma (average): 21 ± 7 nanograms growth hormone per milliliter of plasma
Comparison with somatostatin, in words
  activity in reducing growth hormone concentrations in blood plasma compared with somatostatin: exceeds the activity of somatostatin
First determination, eight treated rats, Nembutal 50 mg/kg i.p., control 86 ± 15
  growth hormone per milliliter of plasma (average): 9 ± 4 nanograms growth hormone per milliliter of plasma
